Laboratory results: publication doi:10.1101/2024.06.13.594677v1 (biorxiv, 2024)
Like-named read-outs stand apart in the source and are kept apart here.

How the values were obtained:
human 5-HT2A receptor [1] = molecular target: T1, human 5-HT2A receptor (Homo sapiens, UniProt P28223); design: species or system SH-SY5Y expressing human 5-HT2A; settings: agonist
rat 5-HT2A receptor [2] = molecular target: T2, rat 5-HT2A receptor (Rattus norvegicus, UniProt P14842)
rat 5-HT2A receptor [3] = molecular target: T2, rat 5-HT2A receptor; design: species or system C6 glioma (endogenous rat 5-HT2A); settings: relative to 10 uM 5-HT; agonist
human 5-HT2A receptor [4] = molecular target: T1, human 5-HT2A receptor; design: species or system SH-SY5Y expressing human 5-HT2A; settings: agonist; remark: listed apart in the source
human 5-HT2A receptor [5] = molecular target: T1, human 5-HT2A receptor; design: species or system SH-SY5Y expressing human 5-HT2A; settings: agonist; remark: listed apart in the source
human 5-HT2A receptor [6] = molecular target: T1, human 5-HT2A receptor; format: cell-based; settings: beta-arrestin2 agonism; GRK2 and GRK3 co-expressed; DPBS with Ca2+; […] min
human 5-HT2A receptor [7] = molecular target: T1, human 5-HT2A receptor; format: cell-based; settings: Gq/IP1 agonism; LiCl; […] °C, […] h
rat 5-HT2A receptor [8] = molecular target: T2, rat 5-HT2A receptor; test: cytosolic Ca2+; format: cell-based; settings: Gq/Ca2+ agonism; room temperature; HBSS with Ca2+
human 5-HT2A receptor [9] = molecular target: T1, human 5-HT2A receptor; format: cell-based; settings: Gq/Ca2+ agonism; room temperature; HBSS with Ca2+

T1 sequence (P28223 whole entry): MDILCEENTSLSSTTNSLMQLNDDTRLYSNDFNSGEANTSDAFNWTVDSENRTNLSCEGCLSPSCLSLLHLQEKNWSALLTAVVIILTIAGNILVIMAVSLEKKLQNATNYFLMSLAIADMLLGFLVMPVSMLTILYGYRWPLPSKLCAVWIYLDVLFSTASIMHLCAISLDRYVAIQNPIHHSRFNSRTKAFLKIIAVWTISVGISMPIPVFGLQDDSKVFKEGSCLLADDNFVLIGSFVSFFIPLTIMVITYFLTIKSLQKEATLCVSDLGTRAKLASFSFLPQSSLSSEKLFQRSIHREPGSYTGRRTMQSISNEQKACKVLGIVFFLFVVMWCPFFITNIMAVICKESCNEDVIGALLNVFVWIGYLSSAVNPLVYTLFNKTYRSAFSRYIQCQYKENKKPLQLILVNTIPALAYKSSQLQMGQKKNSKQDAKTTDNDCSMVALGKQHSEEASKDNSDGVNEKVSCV
T2 sequence (P14842 whole entry): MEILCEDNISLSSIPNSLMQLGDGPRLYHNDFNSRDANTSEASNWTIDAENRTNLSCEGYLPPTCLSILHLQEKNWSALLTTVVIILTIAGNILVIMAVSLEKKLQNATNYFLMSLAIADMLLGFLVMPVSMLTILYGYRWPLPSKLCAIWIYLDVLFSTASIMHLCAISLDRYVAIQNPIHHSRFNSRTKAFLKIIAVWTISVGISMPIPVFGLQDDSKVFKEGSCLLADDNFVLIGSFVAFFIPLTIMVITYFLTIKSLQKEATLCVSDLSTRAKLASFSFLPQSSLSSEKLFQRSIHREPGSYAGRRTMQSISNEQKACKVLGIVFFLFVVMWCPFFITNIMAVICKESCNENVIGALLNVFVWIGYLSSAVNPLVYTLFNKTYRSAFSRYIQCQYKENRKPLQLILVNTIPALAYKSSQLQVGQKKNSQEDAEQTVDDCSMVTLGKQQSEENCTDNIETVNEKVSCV

SMILES	Ca2+ Emax (human 5-HT2A receptor [1])	EC50 (rat 5-HT2A receptor [2]) [nM]	Ca2+ Emax (C6) (rat 5-HT2A receptor [3]) [%]	β-arrestin2 Emax (human 5-HT2A receptor [4])	IP1 Emax (human 5-HT2A receptor [5])	pEC50 (human 5-HT2A receptor [6])	pEC50 (human 5-HT2A receptor [7])	pEC50 (rat 5-HT2A receptor [8])	pEC50 (human 5-HT2A receptor [9])
COc1ccc2[nH]cc(CCN(C)C)c2c1 [5-MeO-DMT, 5-methoxy-N,N-dimethyltryptamine]	0.73 ± 0.033	240	0.36 ± 0.021	0.70 ± 0.020	0.93 ± 0.027	–	–	–	–
COc1cc(CCNCc2ccccc2OC)c(OC)cc1Br [25B-NBOMe, 4-bromo-2,5-dimethoxy-N-(2-methoxybenzyl)phenethylamine]	–	–	–	–	–	8.20 ± 0.079	8.95 ± 0.28	8.10 ± 0.23	7.84 ± 0.15
COc1cc(CCNCc2ccccc2OC)c(OC)cc1Br [25B-NBOMe]	0.57 ± 0.021	–	0.46 ± 0.027	0.88 ± 0.017	0.75 ± 0.040	–	–	–	–
COc1cc(CC(C)N)c(OC)cc1I (stereo not shown) [DOI, 2,5-dimethoxy-4-iodoamphetamine]	0.49 ± 0.019	–	0.32 ± 0.017	0.73 ± 0.027	1.12 ± 0.025	–	–	7.14 ± 0.16	–
CCN(CC)C(=O)[C@@H]1C=C2c3cccc4[nH]cc(c34)C[C@H]2N(C)C1 [LSD]	0.36 ± 0.027	–	0.19 ± 0.0092	–	0.78 ± 0.039	–	–	–	–
COc1cc(CCN)cc(OC)c1OC [Mescaline, 3,4,5-trimethoxyphenethylamine]	0.47 ± 0.031	295	0.40 ± 0.025	0.64 ± 0.059	0.81 ± 0.050	–	–	–	–
COc1ccc2c3c([nH]c2c1)CCN(C)CC3 [TBG]	0.13 ± 0.033	–	–	0.19 ± 0.026	0.35 ± 0.064	–	–	–	–
CN(C)CCc1c[nH]c2cccc(O)c12 [psilocin]	0.40 ± 0.019	–	0.12 ± 0.0079	0.28 ± 0.019	0.80 ± 0.030	–	–	7.15 ± 0.20	–
